Measurements taken from patent US20250319095A1, “USE OF BENZO[…] INCREASE SENSITIVITY TO […] A CHRONIC SSRI REGIMEN” (Compass Pathfinder Limited, priority 2020, published 2025).
In brackets after ≈: the same amount, converted by molar mass.

Tests used:
[1] = tested on: Mouse; assay: Head twitch response to psilocybin after acute diazepam pretreatment; format: in vivo
Procedure: (§1) Animals were dosed as detailed by Table 10 below and were placed in a clean cage. The number of head twitches and wet dog shakes were then counted by a scorer for 30 minutes after dosing. The timings of head twitches and wet dog shakes were recorded by a computer program. The experiment was carried out over three days. Scorers were blinded to treatment group.
(§2) Number of head twitches over each 5-minute period and each 15-minute period and the total for 0-30 minutes were square-root transformed and analyzed by three way ANOVA with treatment, day, and scorer as factors. Ethovision data was analyzed by robust regression using M estimation, Huber weighting, using the default parameter C=1.345. The model used treatment, day, and scorer as factors.
(§3) P<0.05 was the level accepted for statistical difference. The chance of a false positive is 5% for each dose for each time. All tests were carried out as two-sided tests.

[2] = tested on: Mouse; assay: Ethovision activity to psilocybin after acute diazepam pretreatment; format: in vivo
Procedure: as §1
Ethovision data was organized into 5-minute and 15-minute time periods and 0-30 minutes for each animal. Ethovision scores were log transformed, however Shapiro-Wilk tests were significant for many of the 5-minute and 15-minute time windows. Therefore, robust regression was used to analyze the Ethovision data.
as §2, §3

[3] = tested on: male C57BL/6J mice; assay: Psilocybin head twitch response with chronic diazepam pre-treatment; format: in vivo
Procedure: Sixty-two (60 plus 2 spares;) male C57BL/6J mice (20-25 g upon arrival) were purchased from Charles River UK. Animals were group housed (in 3 s and a pair) in polypropylene cages. Mice were maintained on a normal phase 12 h light-dark cycle (lights on: 07:00-19:00 h) with free access to standard rodent maintenance diet (standard pelleted diet Envigo 2018) and filtered tap water. The holding room was maintained at a temperature of 21±4° C. and relative humidity was 55±15% with prolonged periods below 40% RH or above 70% RH avoided as detailed in the UK Code of Practice. As a refinement, each cage contained sawdust, sizzle nest, a red house, Perspex tunnel, plastic chew stick and a nestlet so that the mice can make nests and facilitate warmth. Mice were weighed upon arrival and provided with wet mash overnight. The following morning, mice were weighed, and the mash removed.
Mice were weighed and allocated into 6 treatment groups by a statistician (as per Table 20 below). […] For groups A-D animals were placed individually in clean cages with a light dusting of sawdust immediately following psilocybin administration (0.3 mg/kg, s.c) for head twitch response assessment. Head twitches were counted by a trained observer over a 30 minute period.
Statistical significance was tested using two-way analysis of variance with treatment and observer as cofactors (Table 21 below).

[4] = Solubility of psilocybin in water
[5] = 0 to 5 mins, Psilocybin 0.3 mg/kg sc 1 hr post Diazepam 4 mg/kg ip or Saline ip
[6] = 0 to 5 mins, Psilocybin 1 mg/kg sc 1 hr post Diazepam 4 mg/kg ip or Saline ip
[7] = 0 to 5 mins, Psilocybin 3 mg/kg sc 1 hr post Diazepam 4 mg/kg ip or Saline ip
[8] = 0 to 15 mins, Psilocybin 0.3 mg/kg sc 1 hr post Diazepam 4 mg/kg ip or Saline ip
[9] = 0 to 15 mins, Psilocybin 1 mg/kg sc 1 hr post Diazepam 4 mg/kg ip or Saline ip
[10] = 0 to 15 mins, Psilocybin 3 mg/kg sc 1 hr post Diazepam 4 mg/kg ip or Saline ip
[11] = 0 to 30 mins (total), Psilocybin 0.3 mg/kg sc 1 hr post Diazepam 4 mg/kg ip or Saline ip
[12] = 0 to 30 mins (total), Psilocybin 1 mg/kg sc 1 hr post Diazepam 4 mg/kg ip or Saline ip
[13] = 0 to 30 mins (total), Psilocybin 3 mg/kg sc 1 hr post Diazepam 4 mg/kg ip or Saline ip
[14] = 5 to 10 mins, Psilocybin 0.3 mg/kg sc 1 hr post Diazepam 4 mg/kg ip or Saline ip
[15] = 5 to 10 mins, Psilocybin 1 mg/kg sc 1 hr post Diazepam 4 mg/kg ip or Saline ip
[16] = 5 to 10 mins, Psilocybin 3 mg/kg sc 1 hr post Diazepam 4 mg/kg ip or Saline ip
[17] = 10 to 15 mins, Psilocybin 0.3 mg/kg sc 1 hr post Diazepam 4 mg/kg ip or Saline ip
[18] = 10 to 15 mins, Psilocybin 1 mg/kg sc 1 hr post Diazepam 4 mg/kg ip or Saline ip
[19] = 10 to 15 mins, Psilocybin 3 mg/kg sc 1 hr post Diazepam 4 mg/kg ip or Saline ip
[20] = 15 to 20 mins, Psilocybin 0.3 mg/kg sc 1 hr post Diazepam 4 mg/kg ip or Saline ip
[21] = 15 to 20 mins, Psilocybin 1 mg/kg sc 1 hr post Diazepam 4 mg/kg ip or Saline ip
[22] = 15 to 20 mins, Psilocybin 3 mg/kg sc 1 hr post Diazepam 4 mg/kg ip or Saline ip
[23] = 15 to 30 mins, Psilocybin 0.3 mg/kg sc 1 hr post Diazepam 4 mg/kg ip or Saline ip
[24] = 15 to 30 mins, Psilocybin 1 mg/kg sc 1 hr post Diazepam 4 mg/kg ip or Saline ip
[25] = 15 to 30 mins, Psilocybin 3 mg/kg sc 1 hr post Diazepam 4 mg/kg ip or Saline ip
[26] = 20 to 25 mins, Psilocybin 0.3 mg/kg sc 1 hr post Diazepam 4 mg/kg ip or Saline ip
[27] = 20 to 25 mins, Psilocybin 1 mg/kg sc 1 hr post Diazepam 4 mg/kg ip or Saline ip
[28] = 20 to 25 mins, Psilocybin 3 mg/kg sc 1 hr post Diazepam 4 mg/kg ip or Saline ip
[29] = 25 to 30 mins, Psilocybin 0.3 mg/kg sc 1 hr post Diazepam 4 mg/kg ip or Saline ip
[30] = 25 to 30 mins, Psilocybin 1 mg/kg sc 1 hr post Diazepam 4 mg/kg ip or Saline ip
[31] = 25 to 30 mins, Psilocybin 3 mg/kg sc 1 hr post Diazepam 4 mg/kg ip or Saline ip

Structure (SMILES): CN(C)CCc1c[nH]c2cccc(OP(=O)(O)O)c12 [Psilocybin, psilocybin]
- Head twitches Mean [1, 5]: 1.84
- Head twitches Mean [1, 6]: 2.42
- Head twitches Mean [1, 7]: 5.34
- Head twitches Mean [1, 8]: 5.57
- Head twitches Mean [1, 9]: 6.32
- Head twitches Mean [1, 10]: 12.4
- Head twitches Mean [1, 11]: 8.38
- Head twitches Mean [1, 12]: 8.98
- Head twitches Mean [1, 13]: 15.66
- Head twitches Mean [1, 14]: 1.64
- Head twitches Mean [1, 15]: 1.39
- Head twitches Mean [1, 16]: 4.67
- Head twitches Mean [1, 17]: 1.36
- Head twitches Mean [1, 18]: 1.44
- Head twitches Mean [1, 19]: 2.07
- Head twitches Mean [1, 20]: 0.93
- Head twitches Mean [1, 21]: 1.35
- Head twitches Mean [1, 22]: 1.07
- Head twitches Mean [1, 23]: 2.57
- Head twitches Mean [1, 24]: 2.39
- Head twitches Mean [1, 25]: 2.5
- Head twitches Mean [1, 26]: 0.39
- Head twitches Mean [1, 27]: 0.43
- Head twitches Mean [1, 28]: 0.66
- Head twitches Mean [1, 29]: 0.59
- Head twitches Mean [1, 30]: 0.15
- Head twitches Mean [1, 31]: 0.34
- Ethovision data Mean [2, 5]: 801.48
- Ethovision data Mean [2, 6]: 826.56
- Ethovision data Mean [2, 7]: 785.38
- Ethovision data Mean [2, 8]: 2149.79
- Ethovision data Mean [2, 9]: 2025.10
- Ethovision data Mean [2, 10]: 1667.64
- Ethovision data Mean [2, 11]: 3782.48
- Ethovision data Mean [2, 12]: 3368.87
- Ethovision data Mean [2, 13]: 2403.79
- Ethovision data Mean [2, 14]: 704.55
- Ethovision data Mean [2, 15]: 665.97
- Ethovision data Mean [2, 16]: 516.00
- Ethovision data Mean [2, 17]: 641.76
- Ethovision data Mean [2, 18]: 519.27
- Ethovision data Mean [2, 19]: 353.03
- Ethovision data Mean [2, 20]: 517.51
- Ethovision data Mean [2, 21]: 430.23
- Ethovision data Mean [2, 22]: 271.26
- Ethovision data Mean [2, 23]: 1630.42
- Ethovision data Mean [2, 24]: 1337.33
- Ethovision data Mean [2, 25]: 719.96
- Ethovision data Mean [2, 26]: 519.96
- Ethovision data Mean [2, 27]: 444.11
- Ethovision data Mean [2, 28]: 208.90
- Ethovision data Mean [2, 29]: 551.06
- Ethovision data Mean [2, 30]: 430.12
- Ethovision data Mean [2, 31]: 213.04
- Mean head twitch responses ([3]; 0-5 mins, Psilocybin 0.3 mg/kg sc 2 hr post Diazepam 1.25 mg/kg ip bid 14 days or Saline ip bid): 0.76
- Mean head twitch responses ([3]; 0-5 mins, Psilocybin 0.3 mg/kg sc 24 hr post Diazepam 1.25 mg/kg ip bid 14 days or Saline ip bid): 1.81
- Mean head twitch responses ([3]; 0-15 mins, Psilocybin 0.3 mg/kg sc 2 hr post Diazepam 1.25 mg/kg ip bid 14 days or Saline ip bid): 2.93
- Mean head twitch responses ([3]; 0-15 mins, Psilocybin 0.3 mg/kg sc 24 hr post Diazepam 1.25 mg/kg ip bid 14 days or Saline ip bid): 5.65
- Mean head twitch responses ([3]; 0-30 mins, Psilocybin 0.3 mg/kg sc 2 hr post Diazepam 1.25 mg/kg ip bid 14 days or Saline ip bid): 5.78
- Mean head twitch responses ([3]; 0-30 mins, Psilocybin 0.3 mg/kg sc 24 hr post Diazepam 1.25 mg/kg ip bid 14 days or Saline ip bid): 9.70
- Mean head twitch responses ([3]; 5-10 mins, Psilocybin 0.3 mg/kg sc 2 hr post Diazepam 1.25 mg/kg ip bid 14 days or Saline ip bid): 0.81
- Mean head twitch responses ([3]; 5-10 mins, Psilocybin 0.3 mg/kg sc 24 hr post Diazepam 1.25 mg/kg ip bid 14 days or Saline ip bid): 2.25
- Mean head twitch responses ([3]; 10-15 mins, Psilocybin 0.3 mg/kg sc 2 hr post Diazepam 1.25 mg/kg ip bid 14 days or Saline ip bid): 0.81
- Mean head twitch responses ([3]; 10-15 mins, Psilocybin 0.3 mg/kg sc 24 hr post Diazepam 1.25 mg/kg ip bid 14 days or Saline ip bid): 1.04
- Mean head twitch responses ([3]; 15-20 mins, Psilocybin 0.3 mg/kg sc 2 hr post Diazepam 1.25 mg/kg ip bid 14 days or Saline ip bid): 0.60
- Mean head twitch responses ([3]; 15-20 mins, Psilocybin 0.3 mg/kg sc 24 hr post Diazepam 1.25 mg/kg ip bid 14 days or Saline ip bid): 1.70
- Mean head twitch responses ([3]; 15-30 mins, Psilocybin 0.3 mg/kg sc 2 hr post Diazepam 1.25 mg/kg ip bid 14 days or Saline ip bid): 2.35
- Mean head twitch responses ([3]; 15-30 mins, Psilocybin 0.3 mg/kg sc 24 hr post Diazepam 1.25 mg/kg ip bid 14 days or Saline ip bid): 3.60
- Mean head twitch responses ([3]; 20-25 mins, Psilocybin 0.3 mg/kg sc 2 hr post Diazepam 1.25 mg/kg ip bid 14 days or Saline ip bid): 0.32
- Mean head twitch responses ([3]; 20-25 mins, Psilocybin 0.3 mg/kg sc 24 hr post Diazepam 1.25 mg/kg ip bid 14 days or Saline ip bid): 0.43
- Mean head twitch responses ([3]; 25-30 mins, Psilocybin 0.3 mg/kg sc 2 hr post Diazepam 1.25 mg/kg ip bid 14 days or Saline ip bid): 0.80
- Mean head twitch responses ([3]; 25-30 mins, Psilocybin 0.3 mg/kg sc 24 hr post Diazepam 1.25 mg/kg ip bid 14 days or Saline ip bid): 1.16
- solubility [4]: ~15 mg/mL (≈ 52.8 mM)
